In US20180228778A1, “COMPOSITIONS COMPRISING S1P RECEPTOR MODULATORS” (Akaal Pharma Pty Ltd, priority 2015, published 2018):

Tests used:
[1] = tested on: mild to moderate psoriasis; assay: Phase I clinical study of topical use in healthy volunteers and psoriasis patients; format: in vivo, human; details: daily for 28 days
Description: In a clinical study healthy volunteers and psoriasis patients with mild to moderate psoriasis were treated daily for 28 days.
The local psoriasis severity index (LPSI) was measured and recorded significant efficacy (>40%; p=0.0016; Figure-4). FIG. 4 illustrates the clinical effect of AKP.

[2] = tested on: DNFB-induced delayed type hypersensitivity (DTH) in BALB/c mice; assay: Dinitroflurobenzene (DNFB)-induced delayed type hypersensitivity (DTH) in BALB/c mice; format: in vivo; details: oral, twice daily 3 mg/Kg
From the text: The formulation of representative compound of formula I have shown efficacy in a delayed-type hypersensitivity (DTH) reaction model. The DTH is an expression of cell-mediated immunity and plays a major role in the pathology and chronicity of many inflammatory disorders including inflammatory skin indications. One of the most characteristic DTH phenomena is contact hypersensitivity, which is characterized by swelling and increased tissue levels of cytokines. Contact hypersensitivity (CHS) is a T cell mediated immune reaction in response to cutaneous sensitization and challenge with reactive haptens those are capable of binding directly to soluble and cell associated proteins and recognized by T cells in the context of self-MHC products. The cells that recognize antigen-protein complex in the skin are the Langerhans cells (LCs). After topical application of an allergen, Langerhans cells (LCs), the major antigen-presenting cells (APCs) for the induction of immune responses in skin, show enhanced expression of surface MHC class II molecules, and start to emigrate from the skin to regional lymph nodes where specific lymphocyte activation is thought to occur. After a second contact with the haptens, T cells are first recruited into tissues and then activated by antigen-presenting cells to produce cytokines that mediate local inflammation. Myeloperoxidase (MPO) is an enzyme exclusively present in neutrophils granules, which is commonly used as an index of granulocyte infiltration.
The effect of AKP (a compound of formula (I)) as an oral treatment was evaluated in dinitroflurobenzene (DNFB)-induced delayed type hypersensitivity (DTH) in BALB/c mice. A total of 18 female BALB/c mice were randomly assigned to 2 groups, Group 1: DTH treated with the vehicle of AKP (N=9); Group 2: DTH treated with AKP-11 twice daily dose of 3 mg/Kg (N=9). […] Ear thickness was measured with a micrometer before challenge and 24 h after challenge. Ear weight was measured 24 h after challenge. […]

[3] = tested on: Phorbol ester mediated irritant contact dermatitis in Swiss albino mice; assay: Phorbol ester mediated irritant model of contact dermatitis; format: in vivo; details: for reduction of ear swelling (inflammation): alone or in combination (Figure 3)
Description: The local application of Phorbol ester stimulates protein Kinase C (PKC), COX, LOX activity, formation of free radicals including the synthesis of mediators that regulate the production of TNF-α. The whole process mediates inflammation and hyperplasia as observed in inflammatory skin diseases such as psoriasis, eczema and others.
The topical efficacy of AKP (a compound of formula (I)) was determined in the Phorbol ester mediated irritant model of contact dermatitis. The 24 animals (Swiss albino mice) were divided in four groups (G1-4) of 6 each; G1 (control and vehicle treated), G2 (PMA challenged and vehicle treated), G3 (PMA challenged and clobetasol treated) and G4 (PMA challenged and AKP treated). The topical application of AKP (3% formulation; or as a DMSO solution) shown significant inhibition of ear inflammation (>40%; p<0.05). […] The combination reduced ear swelling (inflammation) by 43% (p[…]0.001) as shown in Figure-3 (Topical efficacy of AKP, betamethasone or combination in mice model of Phorbol ester mediated irritant contact dermatitis).

[4] = tested on: LPS challenged macrophages (RAW cells); assay: Inhibition of pro-inflammatory cytokines and factors in LPS challenged macrophages (RAW cells); format: cell-based; details: in-vitro, 1 to 5 μM
Description: The pro-inflammatory cytokines and factors are over expressed in inflammations, cancer and other indications. Lipopolysaccharide is well known to induce various pro-inflammatory factors in the monocytes (RAW cells) and the efficacy of compound on the LPS challenged cells was evaluated for the inhibition of tumor necrosis factor (TNFα), interleukins; IL1P, IL6, and factors such as inducible nitroxide synthase (iNOS), COX-2 and vascular endothelial growth factor (VEGF).

Row | Compound | AKP in blood (systemic exposure) [1] | serious adverse events [1] | local psoriasis severity index (LPSI) efficacy ([1]; p=0.0016, Figure 4) [%] | ear thickness ([2]; 24 h after DNFB challenge) | ear weight ([2]; 24 h after DNFB challenge) | tissue MPO activity (right ear) ([2]; at sacrifice) | count of lymphocytes in the blood ([3]; topical application) | inhibition of ear inflammation ([3]; topical, 3% formulation or DMSO solution, PMA challenged, p<0.05) [%] | reduction of ear swelling (inflammation) ([3]; topical) [%] | inhibition of pro-inflammatory cytokines and factors (TNFα, IL1P, IL6, iNOS, COX-2, VEGF) [4]
1 | CCCOc1ccc(-c2nc(-c3ccc4oc(C(N)(CO)CO)cc4c3)no2)cc1Cl [AKP] | not evident in blood | no serious adverse event | > 40 | significantly reduced | significantly reduced | significantly reduced | did not alter | > 40 | 30 | markedly inhibited
2 | C[C@H]1C[C@H]2[C@@H]3CCC4=CC(=O)C=C[C@]4(C)[C@@]3(F)[C@@H](O)C[C@]2(C)[C@@]1(O)C(=O)CO [betamethasone, reference compound] |  |  |  |  |  |  |  |  | 30 | 
